Experimental data reported in ChEMBL document CHEMBL5241052, “Dual-target kinase drug design: Current strategies and future directions in cancer therapy” (Eur J Med Chem, 2020).
Values belong to the compound of their own block, whether it stands above or below them.

Legend:
[1] = biological target: T1, Epidermal growth factor receptor (Homo sapiens, UniProt P00533); assay: Inhibition of human EGFR
MDA-MB-231 = assay: Antiproliferative activity against MDA-MB-231 cells (unknown origin); format: functional, cell-based; details: Homo sapiens
[2] = biological target: Proto-oncogene tyrosine-protein kinase Src (Homo sapiens, UniProt P12931); assay: Inhibition of Src (unknown origin)
4T1 = assay: Antiproliferative activity against 4T1 cells (unknown origin); format: functional, cell-based; details: Mus musculus
[3] = biological target: Serine/threonine-protein kinase mTOR (Homo sapiens, UniProt P42345); assay: Inhibition of mTOR (unknown origin) by ELISA based kinase assay
BCPAP = assay: Antiproliferative activity against human BCPAP cells harboring BRAF V600E mutation assessed as cell growth inhibition at 5 uM by cell counting assay; format: functional
Aurora kinase A = Aurora kinase A (Homo sapiens, UniProt O14965); assay: Inhibition of AURA (unknown origin)
Chain of Aurora kinase A (O14965 whole entry): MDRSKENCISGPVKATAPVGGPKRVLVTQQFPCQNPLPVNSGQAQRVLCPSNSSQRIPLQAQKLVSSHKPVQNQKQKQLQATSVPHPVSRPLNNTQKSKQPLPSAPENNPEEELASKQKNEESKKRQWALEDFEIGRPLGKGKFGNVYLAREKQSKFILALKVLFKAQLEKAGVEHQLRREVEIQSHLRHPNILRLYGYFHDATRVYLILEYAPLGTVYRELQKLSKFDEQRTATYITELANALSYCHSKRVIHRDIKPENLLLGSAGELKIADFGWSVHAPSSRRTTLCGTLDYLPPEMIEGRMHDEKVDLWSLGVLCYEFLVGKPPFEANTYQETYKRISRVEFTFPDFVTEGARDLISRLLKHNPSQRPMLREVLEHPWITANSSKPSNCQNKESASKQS

[4] = Antiproliferative activity against human HTh7 cells harboring Ras mutation assessed as cell growth inhibition at 5 uM by cell counting assay; format: functional
[5] = Antiproliferative activity against human HTh104 cells harboring BRAF V600E mutation assessed as cell growth inhibition at 5 uM by cell counting assay; format: functional
[6] = Antiproliferative activity against human C643 cells harboring Ras mutation assessed as cell growth inhibition at 5 uM by cell counting assay; format: functional
TPC1 = assay: Antiproliferative activity against human TPC1 cells harboring RET/PTC mutation assessed as cell growth inhibition at 5 uM by cell counting assay; format: functional
SW-1736 = assay: Antiproliferative activity against human SW-1736 cells harboring BRAF V600E mutation assessed as cell growth inhibition at 5 uM by cell counting assay; format: functional
FTC-133 = assay: Antiproliferative activity against human FTC-133 cells harboring PTEN mutation assessed as cell growth inhibition at 5 uM by cell counting assay; format: functional
HCT-116 = assay: Antiproliferative activity against human HCT-116 cells at 10 uM by MTT assay; format: functional, cell-based
A549 = assay: Antiproliferative activity against human A549 cells at 10 uM by MTT assay; format: functional, cell-based
A-375 = assay: Antiproliferative activity against human A-375 cells at 10 uM by MTT assay; format: functional, cell-based
COLO 205 = assay: Antiproliferative activity against human COLO 205 cells at 10 uM by MTT assay; format: functional, cell-based
LoVo = assay: Antiproliferative activity against human LoVo cells at 10 uM by MTT assay; format: functional, cell-based
[7] = biological target: Serine/threonine-protein kinase B-raf (Homo sapiens, UniProt P15056, V600E); assay: Inhibition of human BRAF V600E mutant
Chain of Serine/threonine-protein kinase B-raf (P15056 2-766 V600E limits assumed): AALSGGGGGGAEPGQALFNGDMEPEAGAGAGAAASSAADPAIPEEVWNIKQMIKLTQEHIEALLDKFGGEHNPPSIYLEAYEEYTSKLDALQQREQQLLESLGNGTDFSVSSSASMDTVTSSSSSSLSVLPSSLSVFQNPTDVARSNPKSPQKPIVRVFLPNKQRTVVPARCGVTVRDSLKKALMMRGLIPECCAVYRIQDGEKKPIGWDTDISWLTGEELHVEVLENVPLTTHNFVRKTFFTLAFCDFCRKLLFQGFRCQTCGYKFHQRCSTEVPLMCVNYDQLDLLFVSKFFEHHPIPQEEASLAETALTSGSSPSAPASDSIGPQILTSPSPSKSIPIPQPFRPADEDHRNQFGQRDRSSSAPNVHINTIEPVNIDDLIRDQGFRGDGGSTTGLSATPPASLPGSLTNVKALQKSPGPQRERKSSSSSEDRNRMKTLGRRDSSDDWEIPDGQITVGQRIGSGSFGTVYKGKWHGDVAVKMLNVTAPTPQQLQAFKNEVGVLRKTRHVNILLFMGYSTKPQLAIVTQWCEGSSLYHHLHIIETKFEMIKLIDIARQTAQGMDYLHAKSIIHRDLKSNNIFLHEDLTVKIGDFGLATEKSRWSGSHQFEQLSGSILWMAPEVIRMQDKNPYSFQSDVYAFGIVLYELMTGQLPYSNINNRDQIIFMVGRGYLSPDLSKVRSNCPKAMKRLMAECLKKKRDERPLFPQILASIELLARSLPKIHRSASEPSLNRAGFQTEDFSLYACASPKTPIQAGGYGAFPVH

MCF7 = assay: Antiproliferative activity against human MCF7 cells at 10 uM by MTT assay; format: functional, cell-based
[8] = biological target: Vascular endothelial growth factor receptor 2 (Homo sapiens, UniProt P35968); assay: Inhibition of VEGFR2 (unknown origin) by invitro kinase assay
[9] = biological target: Proto-oncogene tyrosine-protein kinase receptor Ret (Homo sapiens, UniProt P07949, V804M); assay: Inhibition of RET V804M mutant (unknown origin) by invitro kinase assay
Chain of Proto-oncogene tyrosine-protein kinase receptor Ret (Homo sapiens, UniProt P07949, V804M) (P07949 29-1114 V804M limits assumed): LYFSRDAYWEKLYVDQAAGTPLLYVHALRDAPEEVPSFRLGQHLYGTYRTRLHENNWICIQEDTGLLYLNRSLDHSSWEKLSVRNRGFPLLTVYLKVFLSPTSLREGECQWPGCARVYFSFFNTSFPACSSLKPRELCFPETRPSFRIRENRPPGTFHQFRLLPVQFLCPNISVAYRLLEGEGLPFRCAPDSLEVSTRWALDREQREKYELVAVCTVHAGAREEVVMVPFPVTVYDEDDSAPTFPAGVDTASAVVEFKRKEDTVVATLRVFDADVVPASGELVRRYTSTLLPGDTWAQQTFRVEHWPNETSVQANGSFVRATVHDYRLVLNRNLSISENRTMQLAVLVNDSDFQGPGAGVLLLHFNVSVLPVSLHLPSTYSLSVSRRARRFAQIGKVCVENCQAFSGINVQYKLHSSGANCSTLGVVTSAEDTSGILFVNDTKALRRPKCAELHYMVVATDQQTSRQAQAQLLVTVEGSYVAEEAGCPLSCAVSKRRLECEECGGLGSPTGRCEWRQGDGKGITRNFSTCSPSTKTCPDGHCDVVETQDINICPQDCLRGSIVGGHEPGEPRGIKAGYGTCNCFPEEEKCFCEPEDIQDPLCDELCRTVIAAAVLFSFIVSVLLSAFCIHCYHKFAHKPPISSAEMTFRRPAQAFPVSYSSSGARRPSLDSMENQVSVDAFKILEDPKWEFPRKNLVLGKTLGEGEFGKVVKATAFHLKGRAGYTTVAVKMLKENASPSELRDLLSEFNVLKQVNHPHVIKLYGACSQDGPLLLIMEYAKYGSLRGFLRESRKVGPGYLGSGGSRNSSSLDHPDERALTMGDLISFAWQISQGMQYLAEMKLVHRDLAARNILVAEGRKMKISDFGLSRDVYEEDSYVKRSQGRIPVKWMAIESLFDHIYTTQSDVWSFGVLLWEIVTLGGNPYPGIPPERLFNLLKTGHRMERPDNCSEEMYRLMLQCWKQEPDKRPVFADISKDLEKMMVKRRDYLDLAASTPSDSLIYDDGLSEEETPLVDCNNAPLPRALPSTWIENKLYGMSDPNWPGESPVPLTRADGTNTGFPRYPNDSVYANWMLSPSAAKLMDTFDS

[10] = biological target: Proto-oncogene tyrosine-protein kinase receptor Ret (Homo sapiens, UniProt P07949); assay: Inhibition of RET (unknown origin) by invitro kinase assay
Chain of Proto-oncogene tyrosine-protein kinase receptor Ret (Homo sapiens, UniProt P07949) (P07949 whole entry): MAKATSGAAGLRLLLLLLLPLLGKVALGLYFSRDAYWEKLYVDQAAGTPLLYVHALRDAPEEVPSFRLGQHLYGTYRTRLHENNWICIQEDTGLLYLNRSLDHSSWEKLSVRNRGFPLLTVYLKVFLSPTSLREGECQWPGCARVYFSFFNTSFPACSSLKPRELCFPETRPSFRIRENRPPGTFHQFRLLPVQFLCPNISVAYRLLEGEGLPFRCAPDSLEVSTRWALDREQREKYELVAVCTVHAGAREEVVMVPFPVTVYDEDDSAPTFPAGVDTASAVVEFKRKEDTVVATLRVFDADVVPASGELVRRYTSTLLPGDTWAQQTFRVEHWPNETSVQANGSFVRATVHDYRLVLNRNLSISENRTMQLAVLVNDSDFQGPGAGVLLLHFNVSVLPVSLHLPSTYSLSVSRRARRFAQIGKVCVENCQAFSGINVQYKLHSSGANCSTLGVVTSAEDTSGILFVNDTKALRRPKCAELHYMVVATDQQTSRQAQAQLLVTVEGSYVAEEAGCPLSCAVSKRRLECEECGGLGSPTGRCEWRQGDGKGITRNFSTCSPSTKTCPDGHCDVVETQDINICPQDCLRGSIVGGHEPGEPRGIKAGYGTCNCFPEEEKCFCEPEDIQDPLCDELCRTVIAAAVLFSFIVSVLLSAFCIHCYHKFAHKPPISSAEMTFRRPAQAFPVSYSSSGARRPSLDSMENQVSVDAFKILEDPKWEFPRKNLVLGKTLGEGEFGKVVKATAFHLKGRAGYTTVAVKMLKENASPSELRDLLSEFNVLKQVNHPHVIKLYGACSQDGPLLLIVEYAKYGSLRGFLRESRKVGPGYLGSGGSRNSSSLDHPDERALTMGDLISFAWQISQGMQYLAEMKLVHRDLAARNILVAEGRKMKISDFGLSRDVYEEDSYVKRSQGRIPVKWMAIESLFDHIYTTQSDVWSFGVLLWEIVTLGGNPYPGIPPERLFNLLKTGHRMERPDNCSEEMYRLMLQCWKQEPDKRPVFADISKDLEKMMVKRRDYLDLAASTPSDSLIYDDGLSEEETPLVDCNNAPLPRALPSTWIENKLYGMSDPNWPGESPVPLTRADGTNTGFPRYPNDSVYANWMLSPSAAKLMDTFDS

DU-145 = assay: Antiproliferative activity against human DU-145 cells assessed as growth inhibition and measured after 96 hrs by micro plate reader analysis; format: functional, cell-based; details: DU-145, 96 h
[11] = biological target: T1, Epidermal growth factor receptor; assay: Inhibition of human EGFR phosphorylation by invitro enzyme assay
MES-SA = assay: Antiproliferative activity against human MES-SA cells assessed as growth inhibition and measured after 96 hrs by micro plate reader analysis; format: functional, cell-based

T1 sequence (P00533 whole entry): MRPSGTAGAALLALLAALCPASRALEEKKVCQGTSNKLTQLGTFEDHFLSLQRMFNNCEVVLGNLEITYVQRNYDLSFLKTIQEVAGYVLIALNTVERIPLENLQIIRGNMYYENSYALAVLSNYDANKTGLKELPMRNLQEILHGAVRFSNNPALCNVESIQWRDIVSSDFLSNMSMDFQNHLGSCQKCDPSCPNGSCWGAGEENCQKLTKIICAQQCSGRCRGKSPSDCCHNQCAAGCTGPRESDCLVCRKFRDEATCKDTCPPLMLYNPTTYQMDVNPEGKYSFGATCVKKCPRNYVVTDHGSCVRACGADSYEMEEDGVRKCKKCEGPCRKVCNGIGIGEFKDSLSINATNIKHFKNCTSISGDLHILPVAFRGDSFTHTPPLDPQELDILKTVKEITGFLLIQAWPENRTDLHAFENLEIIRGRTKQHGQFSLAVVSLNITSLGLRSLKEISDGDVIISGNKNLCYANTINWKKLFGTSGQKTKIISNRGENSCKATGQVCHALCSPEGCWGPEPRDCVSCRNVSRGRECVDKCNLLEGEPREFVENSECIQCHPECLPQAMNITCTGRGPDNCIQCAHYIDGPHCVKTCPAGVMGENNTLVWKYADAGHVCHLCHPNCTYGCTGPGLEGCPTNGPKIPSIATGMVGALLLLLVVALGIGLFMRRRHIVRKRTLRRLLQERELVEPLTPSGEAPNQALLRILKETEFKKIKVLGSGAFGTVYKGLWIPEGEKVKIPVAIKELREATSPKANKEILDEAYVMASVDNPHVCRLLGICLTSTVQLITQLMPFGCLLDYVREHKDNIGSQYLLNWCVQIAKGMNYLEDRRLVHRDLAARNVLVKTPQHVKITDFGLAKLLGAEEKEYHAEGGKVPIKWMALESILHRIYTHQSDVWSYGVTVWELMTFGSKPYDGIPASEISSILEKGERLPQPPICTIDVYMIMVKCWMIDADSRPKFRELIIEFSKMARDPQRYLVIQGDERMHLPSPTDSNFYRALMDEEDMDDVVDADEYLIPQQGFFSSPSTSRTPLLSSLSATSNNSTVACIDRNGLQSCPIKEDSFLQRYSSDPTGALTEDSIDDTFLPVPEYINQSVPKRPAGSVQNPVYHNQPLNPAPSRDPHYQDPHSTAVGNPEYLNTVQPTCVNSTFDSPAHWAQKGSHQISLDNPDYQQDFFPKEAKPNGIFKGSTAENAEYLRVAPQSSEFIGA

IC50 [3]: 8230 nM | IC50 (Aurora kinase A): 35 nM | GI50 (SW-1736): 4210 nM
SMILES: Cc1cc(S(=O)(=O)Nc2ccc(/C=C3\SC(=O)N(CC4(C)CCCCC4)C3=O)cc2)ccc1[N+](=O)[O-]
GI50 (BCPAP): 3790 nM | GI50 [4]: 1360 nM | GI50 [5]: 3370 nM | GI50 [6]: 4510 nM | GI50 (TPC1): 7260 nM | GI50 (FTC-133): 5900 nM

IC50 (HCT-116): 110 nM | IC50 (A549): 90 nM | IC50 (A-375): 100 nM | IC50 (COLO 205): 90 nM | IC50 (LoVo): 80 nM | IC50 [7]: 118 nM | IC50 (MCF7): 500 nM
SMILES: CN(c1nc(-c2cnc(N)nc2)nc(N2CCOCC2)n1)C1CCN(C(=O)c2ccccc2)CC1

The next lines start with the compound.

SMILES: CN(CCOC(=O)c1ccc(C(=O)Nc2ncnc3c2c(-c2ccc(Cl)cc2)nn3C(C)(C)C)nc1)Cc1ccc(C(=O)Nc2ccc3ncnc(Nc4cccc(Cl)c4)c3c2)cc1
IC50 [1]: 610 nM | IC50 (MDA-MB-231): 7340 nM | IC50 [2]: 1100 nM | IC50 (4T1): 5600 nM

SMILES: O=C(Cc1ccc(-n2cnc3cc(-c4ccsc4)ccc32)cc1)Nc1cccc(C(F)(F)F)c1
IC50 [8]: < 1 nM | IC50 [9]: < 1 nM | IC50 [10]: < 1 nM

SMILES: COc1cccc(-c2cc(=O)c3ccccc3o2)c1NC(=O)OCCOC(=O)NCCN(C)CCN/N=N/c1ccc2c(Nc3cccc(Cl)c3)ncnc2c1
IC50 (DU-145): 11300 nM | IC50 [11]: 102 nM | IC50 (MES-SA): 24500 nM
